Source: patent US12593767B2, “Protoplast isolation and regeneration of plants” (The Regents of the University of California, priority 2019, dated 2026)
Several values for one entry are separate records, joined by “and”; a condition that tells them apart may be missing. Equal entries are not always repeated. Where two headings read alike, the source gives them in different places.

How the values were obtained:
[1] = test system: TS protoplast; test: Polyamines: callus colony formation from encapsulated protoplasts in 1103P feeder suspension; assay type: cell-based, grape; conditions: for # colonies/alginate bead: 14 days after encapsulation, beads 1-5; for # colonies/alginate bead, Average / # colonies, Total: 14 days; for # colonies, Total: total of 5 beads
Method: We re-suspended embedded protoplasts in conditioned osmotically adjusted grape cell suspension cultures in 125 ml shake flasks and incubated them at 100 rpm and 25 degrees centigrade. In this system, we utilize a grape nurse suspension culture that is of a different genotype than the genotype used to generate the protoplasts. For example, we used 1103P conditioned cell suspension cultures for embedded Thompson Seedless protoplasts.
Recently, we have replaced the use of the shake flasks with 60×15 mm petri plates. This format allows for easy observation of the protoplasts using an inverted microscope and aids sampling of beads to evaluate the fate of the embedded protoplasts. Beads are cultured in 3.5 ml of Lloyd and McCown minimal organics medium supplemented with 30 g/l sucrose, 10 mg/l Picloram and 2.0 mg/l TDZ, 0.4 M mannitol, 1,191 mg/l HEPES, 50 mM CaCl2, 5× antioxidant solution with 1.5 ml of conditioned 1103P cell suspension culture.
We are testing the ability of these polyamines to increase the plating efficiency of encapsulated protoplast as well as increase the rate of cell division. Initially we tested 1.0 mM putrescine in combination with 0.0 or 0.1 mM spermidine since we have previously found these levels to be beneficial in other plant species.

[2] = test system: Merlot protoplasts; conditions: for Ave colonies per bead / Number of colonies, Total / Number of colonies per bead: + 1.0 mM PUT, 0.1 mM SPD; for Number of colonies, Total: total of 5 beads; for Number of colonies per bead: beads 1-5
Method: I have developed and tested an antioxidant solution consisting of 100 mg/l ascorbic acid, 150 mg/l citric acid, 30 mg/l reduced glutathione and 100 mg/l L-cysteine (PTF AQ). I tested the effect of this antioxidant addendum on protoplast viability and division on Thompson seedless and Merlot protoplast culture. Protoplast were isolated and encapsulated in 1.6% calcium alginate beads. Calcium alginate beads from the same protoplast preparation were randomly transferred to shake flasks containing conditioned 0.4 M Pic/TDZ 1103P feeder cell suspensions with or without the addition of 1× or 5× of the antioxidant solutions. After 14 days, the osmotic strength of the feeder suspension was reduced from 0.4 M to 0.2 M mannitol. At day 35, I randomly harvested five beads per treatment and counted the number of mini calli per bead.

[3] = test system: protoplast-derived somatic embryos; test: Maintenance of embryo-containing beads on sorbitol-containing agar medium; assay type: cell-based, grape; conditions: beads maintained on agar-solidified medium containing sorbitol (50 g/l)
Method: Using forceps, we manually transferred individual beads to a 100×20 mm petri dish containing 40 ml of Lloyd and McCown minimal organics medium supplemented with 20 g/l sucrose, 1 g/l casein, 222 mg/l CaCl2, without hormones or activated charcoal. We repeated this transfer/washing process two more times to eliminate any of the feeder suspension cells. We then transferred beads onto agar-solidified 100×20 mm feeder plates containing 40 ml of Lloyd and McCown minimal organics medium supplemented with 20 g/l sucrose, 50 g/l sorbitol, 1 g/l casein, 1 mM MES, 0.5 mg/l BAP and 0.1 mg/l NAA onto which 1.0 ml of a […] grape suspension culture is plated. The grape suspension culture medium consisted of WPM medium supplemented with 20 g/l sucrose 10 mg/l picloram and 2.0 […] mannitol, 222 mg/l CaCl2, 1 g/l casein, 1,191 mg/l HEPES and 2 g/l activated charcoal, pH 5.7. We placed an 85 mm Whatman filter paper over the plated suspension and a 70 mm Whatman filter paper on top of the 85 mm filter. We placed beads on top of the 70 mm filter paper. We add 1 ml Lloyd and McCown minimal organics medium supplemented with 30 g/l sucrose, 1 g/l casein, 1 mM MES, 10 mg/l picloram and 2.0 mg/l TDZ to each plate to prevent desiccation. We incubated the cultures at 26 degrees centigrade in the dark. After approximately 3-4 weeks, mini-calli developed into somatic embryos within the beads (FIG. 15). […]

[4] = SPD 0.0 mM, SPM 0.1 mM, + 1 mM putrescine, Experiment 19129
[5] = SPD 0.0 mM, SPM 1.0 mM, + 1 mM putrescine, Experiment 19129
[6] = SPD 0.1 mM, CAD 0.0 mM, + 1.0 mM putrescine, 0.1 mM spermidine, Experiment 19136
[7] = SPD 0.1 mM, SPM 0.0 mM, + 1 mM putrescine, Experiment 19129
[8] = SPD 1.0 mM, CAD 0.0 mM, + 1.0 mM putrescine, 0.1 mM spermidine, Experiment 19136
[9] = SPD 1.0 mM, SPM 0.0 mM, + 1 mM putrescine, Experiment 19129
[10] = SPD 0.0 mM, CAD 0.1 mM, + 1.0 mM putrescine, 0.1 mM spermidine, Experiment 19136
[11] = SPD 0.0 mM, CAD 1.0 mM, + 1.0 mM putrescine, 0.1 mM spermidine, Experiment 19136

NCCCNCCCCNCCCN [spermine]
enhancement in growth ([1]; 0.1 mM spermine, + 1.0 mM putrescine): did not see any enhancement in growth
callus colony growth ([1]; 1.0 mM spermine, 21 days of culture, regardless of the level of CAD): significant enhancement in callus colony growth
number of protoplasts that divided and speed of protoplast derived callus formation ([1]; 1.0 mM spermine, + 1.0 mM putrescine, irrespective of the spermidine concentration): enhanced the number of protoplasts that divided and the speed of protoplast derived callus formation
# colonies/alginate bead ([1]; SPD 0.0 mM, SPM 0.1 mM, + 1 mM putrescine, Experiment 19129, listed as SPM): 96 colonies/alginate bead and 81 colonies/alginate bead and 79 colonies/alginate bead and 59 colonies/alginate bead and 84 colonies/alginate bead
# colonies/alginate bead, Average [1, 4]: 79.8 colonies/alginate bead
# colonies, Total [1, 4]: 399
# colonies/alginate bead, Average [1, 5]: 205.8 colonies/alginate bead
# colonies, Total [1, 5]: 1029
number and speed of mini-callus formation ([1]; Thompson seedless derived protoplasts): significantly enhanced the number and speed of mini-callus formation
number and speed of mini-callus formation ([2]; Merlot derived protoplasts): significantly enhanced the number and speed of mini-callus formation
Ave colonies per bead ([2]; SPM 0.1 mM): 0.2 colonies per bead
Number of colonies, Total ([2]; SPM 0.1 mM): 1
Ave colonies per bead ([2]; SPM 0.25 mM): 0 colonies per bead
Number of colonies per bead ([2]; SPM 0.25 mM): 0 colonies per bead
Number of colonies, Total ([2]; SPM 0.25 mM): 0
Ave colonies per bead ([2]; SPM 0.5 mM): 0.2 colonies per bead
Number of colonies, Total ([2]; SPM 0.5 mM): 1
Ave colonies per bead ([2]; SPM 0.75 mM): 0 colonies per bead
Number of colonies per bead ([2]; SPM 0.75 mM): 0 colonies per bead
Number of colonies, Total ([2]; SPM 0.75 mM): 0
Ave colonies per bead ([2]; SPM 1.0 mM): 6.2 colonies per bead
Number of colonies, Total ([2]; SPM 1.0 mM): 31

NCCCCNCCCN [spermidine]
callus colony formation, addition to 1.0 mM putrescine ([1]; 0.1 mM spermidine): did not enhance the response
# colonies/alginate bead ([1]; SPD 0.1 mM, CAD 0.0 mM, + 1.0 mM putrescine, 0.1 mM spermidine, Experiment 19136, listed as SPD): 68 colonies/alginate bead and 79 colonies/alginate bead and 64 colonies/alginate bead and 65 colonies/alginate bead and 86 colonies/alginate bead
# colonies/alginate bead, Average [1, 6]: 72.4 colonies/alginate bead
# colonies, Total [1, 6]: 362
# colonies/alginate bead ([1]; SPD 0.1 mM, SPM 0.0 mM, + 1 mM putrescine, Experiment 19129, listed as SPD): 91 colonies/alginate bead and 93 colonies/alginate bead and 120 colonies/alginate bead and 110 colonies/alginate bead
# colonies/alginate bead, Average [1, 7]: 101.4 colonies/alginate bead
# colonies, Total [1, 7]: 507
# colonies/alginate bead ([1]; SPD 1.0 mM, CAD 0.0 mM, + 1.0 mM putrescine, 0.1 mM spermidine, Experiment 19136, listed as SPD): 133 colonies/alginate bead and 121 colonies/alginate bead and 115 colonies/alginate bead and 98 colonies/alginate bead
# colonies/alginate bead, Average [1, 8]: 120 colonies/alginate bead
# colonies, Total [1, 8]: 600
# colonies/alginate bead ([1]; SPD 1.0 mM, SPM 0.0 mM, + 1 mM putrescine, Experiment 19129, listed as SPD): 81 colonies/alginate bead and 97 colonies/alginate bead and 79 colonies/alginate bead and 125 colonies/alginate bead and 89 colonies/alginate bead
# colonies/alginate bead, Average [1, 9]: 94.2 colonies/alginate bead
# colonies, Total [1, 9]: 471

NCCCCN [putrescine]
callus colony formation ([1]; 1.0 mM putrescine): stimulated callus colony formation

NCCCCCN [cadaverine]
# colonies/alginate bead ([1]; SPD 0.0 mM, CAD 0.1 mM, + 1.0 mM putrescine, 0.1 mM spermidine, Experiment 19136, listed as CAD): 100 colonies/alginate bead and 115 colonies/alginate bead and 92 colonies/alginate bead and 104 colonies/alginate bead and 95 colonies/alginate bead
# colonies/alginate bead, Average [1, 10]: 101.2 colonies/alginate bead
# colonies, Total [1, 10]: 506
# colonies/alginate bead ([1]; SPD 0.0 mM, CAD 1.0 mM, + 1.0 mM putrescine, 0.1 mM spermidine, Experiment 19136, listed as CAD): 104 colonies/alginate bead and 82 colonies/alginate bead and 87 colonies/alginate bead and 92 colonies/alginate bead and 73 colonies/alginate bead
# colonies/alginate bead, Average [1, 11]: 87.6 colonies/alginate bead
# colonies, Total [1, 11]: 438
cell division or cells growth from grape protoplasts ([1]; cadaverine 0.1 or 1.0 mM, + 1.0 mM putrescine, 0.1 mM spermidine, 0.0-1.0 mM spermine): does not seem to enhance cell division or cells growth

OC[C@@H](O)[C@@H](O)[C@H](O)[C@@H](O)CO [sorbitol]
germination of embryos in beads [3]: will not germinate further and become dormant
